In patent US20250108110A1, “COMBINATION THERAPY FOR USE IN TREATMENT OF NON-SMALL CELL LUNG CANCER” (Alethia Biotherapeutics Inc., priority 2022, published 2025):

Tests used:
[1] = system: advanced non-small cell lung cancer; conditions: second-line chemotherapy; cited from earlier work
[2] = Pharmacokinetics of AB-16B5 in treated subjects; assay type: in vivo, human; conditions: preliminary pharmacokinetics data (not shown), 12 mg/kg once weekly
Excerpt: Yet another secondary objective of this study is to determine the pharmacokinetics of AB-16B5 in this subject population.

CC(=O)O[C@@]12CO[C@@H]1C[C@H](O)[C@@]1(C)C(=O)[C@H](O)C3=C(C)[C@@H](OC(=O)[C@H](O)[C@@H](NC(=O)OC(C)(C)C)c4ccccc4)C[C@@](O)([C@@H](OC(=O)c4ccccc4)[C@H]21)C3(C)C [docetaxel]
efficacy of 50 mg/m^2 once every two weeks versus 75 mg/m^2 once every three weeks [1]: as effective as

AB-16B5: humanized IgG2 monoclonal antibody targeting sCLU for the inhibition of cancer-associated EMT; light chain SEQ ID NO:14, heavy chain SEQ ID NO:15
accumulation of the antibody in the treated subjects over time [2]: accumulation
